Where two headings read alike, the source gives them in different places.
Experiments:
[1] = target: recombinant human IL-17AA (Homo sapiens, UniProt Q16552); experiment: IL-6 release from NHDF cells, IL-17AA plus TNF-α stimulation; assay type: cell-based; conditions: NHDF cells, 24 hours, IL-6 by ELISA
Procedure: IL-6 Release from NHDF Cells (Normal Human Dermal Fibroblasts)
NHDF cells isolated from normal adult mesoderm, connective tissues were cultured in fibroblast growth medium containing 2% supplement. […] The cells were allowed to adhere overnight before they were incubated with the compound/cytokine cocktail.
Diluted compounds were pre-incubated with recombinant human IL-17AA or IL-17AF plus human TNF-α for 30 minutes at room temperature on a shaker. […] The cells were incubated with the compound/cytokines cocktail for 24 hours at 37° C. (5% CO2). […] The final DMSO or plasma concentrations were 0.1% or 20%, respectively. All compound incubations were done in duplicate. The supernatants were collected to quantify IL-6 by ELISA according to the manufacturers instructions. The optical density was measured at 450 nm by an EnVision Multilabel Plate Reader (Perkin Elmer). The IL-6 levels produced after TNF-α stimulation were subtracted from the IL-6 produced after IL-17/TNF-α co-stimulation. These IL-17-specific IL-6 concentrations were used for […] value calculation.

[2] = target: biotinylated human IL-17A / AF647-labeled human IL-17RA (Homo sapiens, UniProt Q16552); experiment: Human IL-17A×IL-17RA TR-FRET assay; assay type: binding; conditions: TR-FRET
Chain of biotinylated human IL-17A / AF647-labeled human IL-17RA (Q16552 24-155): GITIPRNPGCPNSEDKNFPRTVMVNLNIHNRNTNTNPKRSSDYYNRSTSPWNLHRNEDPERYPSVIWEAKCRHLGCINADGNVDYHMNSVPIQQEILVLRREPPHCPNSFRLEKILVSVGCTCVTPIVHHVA
Procedure: Human IL-17A×IL-17RA TR-FRET Assay
Each compound concentration is tested in duplicate.
The final total assay volume is 10 μL.
Each plate contains test compounds in columns 1-22 and controls in columns 23 and 24. The neutral control (NC) contains all the assay components, but DMSO instead of test compound. […] The fluorescence values for emission at 615 nm and 665 nm are loaded to the evaluation software Helios.
From the activity data at each compound concentration, the IC50 values are obtained using the 4-parameter logistic function (“Hill-slope model”) of Helios.

[3] = IL-17AA 30 pM plus TNF-α 6 pM, read-out: IL17AA + TNF IC50 IL-6
[4] = biotinylated human IL-17A 5 nM, AF647-labeled human IL-17RA 30 nM, read-out: IL17AA FRET/ IL17Rawt IC50
[5] = IL-17AA 30 pM + TNF-α 6 pM, read-out: IL17AA + TNF IC50 IL-6
[6] = 5 nM IL-17A, 30 nM IL-17RA, read-out: IL17AA FRET/ IL17Rawt IC50

Chain of recombinant human IL-17AA (Q16552 24-155): as above

Row | SMILES | IC50 [2, 4] [µM] | IC50 [2, 6] [µM] | further results
1 | Cc1nocc1C(=O)N[C@H](C(=O)Nc1ccc(-c2c(Cl)cc[n+]([O-])c2C)c(F)c1)C1CCC(F)(F)CC1 [Example 106, 4-chloro-3-(4-((S)-2-(4,4-difluorocyclohexyl)-2-(3-methylisoxazole-4-carboxamido)acetamido)-2-fluorophenyl)-2-methylpyridine 1-oxide] | 0.05 |  | IC50 [1, 3]: 0.018 µM
2 | CCc1nocc1C(=O)N[C@H](C(=O)Nc1ccc(-c2c(C(F)(F)F)cc[n+]([O-])c2C)cc1)[C@H]1CCCC(F)(F)C1 [Example 26, 3-(4-((S)-2-((S)-3,3-difluorocyclohexyl)-2-(3-ethylisoxazole-4-carboxamido)acetamido)phenyl)-2-methyl-4-(trifluoromethyl)pyridine 1-oxide] | 0.044 |  | IC50 [1, 3]: 0.014 µM
3 | COCc1nocc1C(=O)N[C@H](C(=O)Nc1ccc(-c2c(Cl)cc[n+]([O-])c2C)c(F)c1)C1CCC(F)(F)CC1 [Example 163, 4-chloro-3-(4-((S)-2-(4,4-difluorocyclohexyl)-2-(3-(methoxymethyl)isoxazole-4-carboxamido)acetamido)-2-fluorophenyl)-2-methylpyridine 1-oxide] |  | 0.191 | IC50 [1, 5]: 0.068 µM
4 | Cc1c(-c2ccc(NC(=O)[C@@H](NC(=O)c3ccnn3C)C3CCC(F)(F)CC3)cc2)c(Cl)cc[n+]1[O-] [Example 52, (S)-4-chloro-3-(4-(2-(4,4-difluorocyclohexyl)-2-(1-methyl-1H-pyrazole-5-carboxamido)acetamido)phenyl)-2-methylpyridine 1-oxide] | 0.043 |  | IC50 [1, 3]: 0.08 µM
5 | CC(=O)N1CCn2c(ccc2C(=O)N[C@H](C(=O)Nc2ccc(-c3c(Cl)cc[n+]([O-])c3C)cc2)C2CCCCC2)C1 [Example 199, (S)-3-(4-(2-(2-acetyl-1,2,3,4-tetrahydropyrrolo[1,2-a]pyrazine-6-carboxamido)-2-cyclohexylacetamido)phenyl)-4-chloro-2-methylpyridine 1-oxide] |  | 0.237 | IC50 [1, 5]: 0.0115 µM
6 | Cc1cc[n+]([O-])c(C)c1-c1ccc(NC(=O)[C@@H](NC(=O)c2cnn(C)c2C)C2CCCCC2)cc1 [Example 167, (S)-3-(4-(2-cyclohexyl-2-(1,5-dimethyl-1H-pyrazole-4-carboxamido)acetamido)phenyl)-2,4-dimethylpyridine 1-oxide] |  | 0.155 | IC50 [1, 5]: 0.21 µM
7 | Cc1c(-c2ccc(NC(=O)[C@@H](NC(=O)c3ccnn3C)[C@H]3CCCC(F)(F)C3)cc2F)c(Cl)cc[n+]1[O-] [Example 110, 4-chloro-3-(4-((S)-2-((S)-3,3-difluorocyclohexyl)-2-(1-methyl-1H-pyrazole-5-carboxamido)acetamido)-2-fluorophenyl)-2-methylpyridine 1-oxide] |  |  | IC50 [1, 3]: 0.008 µM
8 | Cc1nccc(Cl)c1-c1ccc(NC(=O)[C@@H](NC(=O)c2ccnn2C)C2CCCCC2)cc1F [compound 137, N-((1S)-2-((4-(4-chloro-2-methylpyridin-3-yl)-3-fluorophenyl)amino)-1-cyclohexyl-2-oxoethyl)-1-methyl-1H-pyrazole-5-carboxamide, reference compound] |  |  | IC50 ([1]; IL-17AA 30 pM + TNF-α 6 pM, reference examples (pyridines), read-out: IL 17AA + TNF IC50 IL-6): 0.578 µM
9 | Cc1c(-c2ccc(NC(=O)[C@@H](NC(=O)c3ccnn3C)C3CCCCC3)cc2F)ccc[n+]1[O-] [Example 83, (S)-3-(4-(2-cyclohexyl-2-(1-methyl-1H-pyrazole-5-carboxamido)acetamido)-2-fluorophenyl)-2-methylpyridine 1-oxide] |  |  | IC50 [1, 3]: 0.115 µM
10 | CCn1nccc1C(=O)N[C@H](C(=O)Nc1ccc(-c2c(C(F)(F)F)cc[n+]([O-])c2C)cc1)C1CC2CC2C1 (stereo partly drawn) [Example 223, 3-(4-((2S)-2-(bicyclo[3.1.0]hexan-3-yl)-2-(1-ethyl-1H-pyrazole-5-carboxamido)acetamido)phenyl)-2-methyl-4-(trifluoromethyl)pyridine 1-oxide] |  | 9.08 | 
11 | Cc1cc[n+]([O-])c(C)c1-c1ccc(NC(=O)C(NC(=O)c2ccc3n2CCN(C)C3)C2CC3CC3C2)cc1 (single isomer, unassigned) [Example 150] |  | 0.464 | 
12 | CCn1nccc1C(=O)NC(C(=O)Nc1ccc(-c2c(Cl)cc[n+]([O-])c2C)cc1)C1CCC(C(F)(F)F)CC1 [Example 20, 4-chloro-3-(4-((S)-2-(1-ethyl-1H-pyrazole-5-carboxamido)-2-((1r,4S)-4-(trifluoromethyl)cyclohexyl)acetamido)phenyl)-2-methylpyridine 1-oxi] | 0.68 |  | 
13 | Cc1cc[n+]([O-])c(C)c1-c1ccc(NC(=O)[C@@H](NC(=O)c2conc2CO)C2CCC(F)(F)CC2)cc1 [Example 155, (S)-3-(4-(2-(4,4-difluorocyclohexyl)-2-(3-(hydroxymethyl)isoxazole-4-carboxamido)acetamido)phenyl)-2,4-dimethylpyridine 1-oxide] |  | 1.15 | 
14 | Cc1cc[n+]([O-])c(F)c1-c1ccc(NC(=O)[C@@H](NC(=O)c2ccnn2C)C2CCCCC2)cc1 [Example 114, (S)-3-(4-(2-cyclohexyl-2-(1-methyl-1H-pyrazole-5-carboxamido)acetamido)phenyl)-2-fluoro-4-methylpyridine 1-oxide] | 2.79 |  | 
15 | Cc1nc(C(F)(F)F)c(C(=O)N[C@H](C(=O)Nc2ccc(-c3c(C(F)(F)F)cc[n+]([O-])c3C)cc2)C2CCCC2)s1 [Example 73, (S)-3-(4-(2-cyclopentyl-2-(2-methyl-4-(trifluoromethyl)thiazole-5-carboxamido)acetamido)phenyl)-2-methyl-4-(trifluoromethyl)pyridine 1-oxide] | 1.41 |  | 
16 | Cc1cc[n+]([O-])c(C)c1-c1ccc(NC(=O)C(NC(=O)c2ccnn2C)C2(C)CCCCC2)cc1 (stereo not shown) [Example 43, 2,4-dimethyl-3-(4-(2-(1-methyl-1H-pyrazole-5-carboxamido)-2-(1-methylcyclohexyl)acetamido)phenyl)pyridine 1-oxide] | 78.9 |  | 
17 | Cc1cc[n+]([O-])c(C)c1-c1ccc(NC(=O)[C@@H](NC(=O)c2ccc3n2CCN(C)C3)[C@H]2CCCC(F)(F)C2)cc1 [Example 152, 3-(4-((S)-2-((S)-3,3-difluorocyclohexyl)-2-(2-methyl-1,2,3,4-tetrahydropyrrolo[1,2-a]pyrazine-6-carboxamido)acetamido)phenyl)-2,4-dimethylpyridine 1-oxide] |  | 0.391 | 
18 | Cc1c(-c2ccc(NC(=O)C(NC(=O)c3ccc4n3CCN(C)C4)[C@@H]3C[C@@H]4[C@H](C3)C4(F)F)cc2)c(Cl)cc[n+]1[O-] (stereo partly drawn) [Example 165, 4-chloro-3-(4-(2-((1R,3s,5S)-6,6-difluorobicyclo[3.1.0]hexan-3-yl)-2-(2-methyl-1,2,3,4-tetrahydropyrrolo[1,2-a]pyrazine-6-carboxamido)acetamido)phenyl)-2-methylpyridine 1-oxide] |  | 0.301 | 
19 | CCn1nccc1C(=O)N[C@H](C(=O)Nc1ccc(-c2c(C)ccnc2C)cc1)[C@H]1CC[C@H](C(F)(F)F)CC1 [compound 141, N-((S)-2-((4-(2,4-dimethylpyridin-3-yl)phenyl)amino)-2-oxo-1-((1r,4S)-4-(trifluoromethyl)cyclohexyl)ethyl)-1-ethyl-1H-pyrazole-5-carboxamide, reference compound] |  |  | IC50 ([2]; 5 nM IL-17A, 30 nM IL-17RA, reference examples (pyridines), read-out: IL17AA FRET/ IL17RAwt IC50): 2.63 µM
20 | Cc1cc[n+]([O-])c(C)c1-c1ccc(NC(=O)[C@@H](NC(=O)c2ccc3n2CCNC3)[C@H]2CCCC(F)(F)C2)cc1 [Example 208, 3-(4-((S)-2-((S)-3,3-difluorocyclohexyl)-2-(1,2,3,4-tetrahydropyrrolo[1,2-a]pyrazine-6-carboxamido)acetamido)phenyl)-2,4-dimethylpyridine 1-oxide] |  | 0.316 | 
21 | Cc1cc[n+]([O-])cc1-c1ccc(NC(=O)[C@@H](NC(=O)c2ccnn2C)C2CCCCC2)cc1 [Example 81, (S)-3-(4-(2-cyclohexyl-2-(1-methyl-1H-pyrazole-5-carboxamido)acetamido)phenyl)-4-methylpyridine 1-oxide] | 3.74 |  | 
22 | Cc1nocc1C(=O)NC(C(=O)Nc1ccc(-c2c(Cl)cc[n+]([O-])c2C)cc1)C1CC2CC2C1 (single isomer, unassigned) [Example 146] |  |  | IC50 [1, 5]: 0.057 µM
